Measured values reported in patent US6632799B2, “Injectable ready-to-use solutions containing an antitumor anthracycline glycoside” (Pharmacia & Upjohn Company, priority 1985, dated 2003).
Where a name gives a salt, the structure may show the parent alone.

Test: pH-stability profile at 55° C. of doxorubicin.HCl solutions in sterile water, 5% dextrose, 0.9% saline
Assay type: physicochemical
Settings: for Doxorubicin.HCl % stability: 55° C.

## COc1cccc2c1C(=O)c1c(O)c3c(c(O)c1C2=O)C[C@@](O)(C(=O)CO)C[C@@H]3O[C@H]1C[C@H](N)[C@H](O)[C@H](C)O1 [Doxorubicin.HCl, doxorubicin hydrochloride]
5% dextrose, pH 2.0 buffer, 72 hours
  Doxorubicin.HCl % stability: 38.4%
5% dextrose, pH 2.5 buffer, 0 hours
  Doxorubicin.HCl % stability: 100.0%
5% dextrose, pH 2.5 buffer, 8 hours
  Doxorubicin.HCl % stability: 96.4%
5% dextrose, pH 2.5 buffer, 16 hours
  Doxorubicin.HCl % stability: 92.6%
5% dextrose, pH 2.5 buffer, 24 hours
  Doxorubicin.HCl % stability: 89.5%
5% dextrose, pH 2.5 buffer, 34 hours
  Doxorubicin.HCl % stability: 85.5%
5% dextrose, pH 2.5 buffer, 48 hours
  Doxorubicin.HCl % stability: 76.2%
5% dextrose, pH 2.5 buffer, 72 hours
  Doxorubicin.HCl % stability: 66.3%
5% dextrose, pH 3.0 buffer, 0 hours
  Doxorubicin.HCl % stability: 100.0%
5% dextrose, pH 3.0 buffer, 16 hours
  Doxorubicin.HCl % stability: 96.6%
5% dextrose, pH 3.0 buffer, 24 hours
  Doxorubicin.HCl % stability: 92.7%
5% dextrose, pH 3.0 buffer, 48 hours
  Doxorubicin.HCl % stability: 83.3%
5% dextrose, pH 3.0 buffer, 72 hours
  Doxorubicin.HCl % stability: 76.4%
5% dextrose, pH 3.0 buffer, 96 hours
  Doxorubicin.HCl % stability: 68.0%
5% dextrose, pH 3.0 buffer, 120 hours
  Doxorubicin.HCl % stability: 61.1%
5% dextrose, pH 3.5 buffer, 0 hours
  Doxorubicin.HCl % stability: 100.0%
5% dextrose, pH 3.5 buffer, 16 hours
  Doxorubicin.HCl % stability: 95.7%
5% dextrose, pH 3.5 buffer, 24 hours
  Doxorubicin.HCl % stability: 93.7%
5% dextrose, pH 3.5 buffer, 48 hours
  Doxorubicin.HCl % stability: 81.8%
5% dextrose, pH 3.5 buffer, 72 hours
  Doxorubicin.HCl % stability: 66.8%
5% dextrose, pH 3.5 buffer, 96 hours
  Doxorubicin.HCl % stability: 61.6%
5% dextrose, pH 4.0 buffer, 0 hours
  Doxorubicin.HCl % stability: 100.0%
5% dextrose, pH 4.0 buffer, 8 hours
  Doxorubicin.HCl % stability: 95.5%
5% dextrose, pH 4.0 buffer, 16 hours
  Doxorubicin.HCl % stability: 85.6%
5% dextrose, pH 4.0 buffer, 48 hours
  Doxorubicin.HCl % stability: 65.5%
5% dextrose, pH 4.0 buffer, 72 hours
  Doxorubicin.HCl % stability: 53.9%
5% dextrose, pH 5.0 buffer, 0 hours
  Doxorubicin.HCl % stability: 100.0%
5% dextrose, pH 5.0 buffer, 8 hours
  Doxorubicin.HCl % stability: 94.7%
5% dextrose, pH 5.0 buffer, 16 hours
  Doxorubicin.HCl % stability: 83.2%
5% dextrose, pH 5.0 buffer, 24 hours
  Doxorubicin.HCl % stability: 79.9%
5% dextrose, pH 5.0 buffer, 34 hours
  Doxorubicin.HCl % stability: 70.4%
5% dextrose, pH 5.0 buffer, 48 hours
  Doxorubicin.HCl % stability: 57.8%
5% dextrose, pH 5.5 buffer, 0 hours
  Doxorubicin.HCl % stability: 100.0%
5% dextrose, pH 5.5 buffer, 8 hours
  Doxorubicin.HCl % stability: 92.5%
5% dextrose, pH 5.5 buffer, 16 hours
  Doxorubicin.HCl % stability: 73.8%
5% dextrose, pH 5.5 buffer, 24 hours
  Doxorubicin.HCl % stability: 62.6%
5% dextrose, pH 5.5 buffer, 34 hours
  Doxorubicin.HCl % stability: 54.8%
Sterile water, Acetate pH 4.0, 55° C.
  Kobs × 10^3: 269.8 1/days
Sterile water, Acetate pH 5.0, 55° C.
  Kobs × 10^3: 322.6 1/days
Sterile water, Acetate pH 5.5, 55° C.
  Kobs × 10^3: 415.4 1/days
Sterile water, Formate pH 3.5, 55° C.
  Kobs × 10^3: 96.7 1/days
Sterile water, Glycine-HCl pH 2.0, 55° C.
  Kobs × 10^3: 309.5 1/days
Sterile water, Glycine-HCl pH 2.5, 55° C.
  Kobs × 10^3: 138.3 1/days
Sterile water, Glycine-HCl pH 3.0, 55° C.
  Kobs × 10^3: 93.1 1/days
Sterile water, pH 2.0 buffer, 0 hours
  Doxorubicin.HCl % stability: 100.0%
Sterile water, pH 2.0 buffer, 8 hours
  Doxorubicin.HCl % stability: 93.6%
Sterile water, pH 2.0 buffer, 16 hours
  Doxorubicin.HCl % stability: 82.6%
Sterile water, pH 2.0 buffer, 24 hours
  Doxorubicin.HCl % stability: 76.9%
Sterile water, pH 2.0 buffer, 48 hours
  Doxorubicin.HCl % stability: 56.6%
Sterile water, pH 2.0 buffer, 72 hours
  Doxorubicin.HCl % stability: 39.6%
Sterile water, pH 2.5 buffer, 0 hours
  Doxorubicin.HCl % stability: 100.0%
Sterile water, pH 2.5 buffer, 8 hours
  Doxorubicin.HCl % stability: 96.7%
Sterile water, pH 2.5 buffer, 16 hours
  Doxorubicin.HCl % stability: 92.1%
Sterile water, pH 2.5 buffer, 24 hours
  Doxorubicin.HCl % stability: 86.2%
Sterile water, pH 2.5 buffer, 48 hours
  Doxorubicin.HCl % stability: 78.2%
Sterile water, pH 3.0 buffer, 0 hours
  Doxorubicin.HCl % stability: 100.0%
Sterile water, pH 3.0 buffer, 8 hours
  Doxorubicin.HCl % stability: 97.8%
Sterile water, pH 3.0 buffer, 16 hours
  Doxorubicin.HCl % stability: 93.9%
Sterile water, pH 3.0 buffer, 24 hours
  Doxorubicin.HCl % stability: 91.4%
Sterile water, pH 3.0 buffer, 48 hours
  Doxorubicin.HCl % stability: 84.7%
Sterile water, pH 3.0 buffer, 72 hours
  Doxorubicin.HCl % stability: 76.1%
Sterile water, pH 3.0 buffer, 120 hours
  Doxorubicin.HCl % stability: 62.8%
Sterile water, pH 3.5 buffer, 0 hours
  Doxorubicin.HCl % stability: 100.0%
Sterile water, pH 3.5 buffer, 8 hours
  Doxorubicin.HCl % stability: 95.8%
Sterile water, pH 3.5 buffer, 16 hours
  Doxorubicin.HCl % stability: 92.7%
Sterile water, pH 3.5 buffer, 24 hours
  Doxorubicin.HCl % stability: 90.4%
Sterile water, pH 3.5 buffer, 48 hours
  Doxorubicin.HCl % stability: 81.1%
Sterile water, pH 3.5 buffer, 72 hours
  Doxorubicin.HCl % stability: 75.6%
Sterile water, pH 3.5 buffer, 120 hours
  Doxorubicin.HCl % stability: 61.0%
Sterile water, pH 4.0 buffer, 0 hours
  Doxorubicin.HCl % stability: 100.0%
Sterile water, pH 4.0 buffer, 8 hours
  Doxorubicin.HCl % stability: 88.0%
Sterile water, pH 4.0 buffer, 16 hours
  Doxorubicin.HCl % stability: 82.7%
Sterile water, pH 4.0 buffer, 24 hours
  Doxorubicin.HCl % stability: 76.8%
Sterile water, pH 4.0 buffer, 48 hours
  Doxorubicin.HCl % stability: 57.4%
Sterile water, pH 5.0 buffer, 0 hours
  Doxorubicin.HCl % stability: 100.0
Sterile water, pH 5.0 buffer, 8 hours
  Doxorubicin.HCl % stability: 90.3
Sterile water, pH 5.0 buffer, 16 hours
  Doxorubicin.HCl % stability: 83.6
Sterile water, pH 5.0 buffer, 24 hours
  Doxorubicin.HCl % stability: 74.9
Sterile water, pH 5.5 buffer, 0 hours
  Doxorubicin.HCl % stability: 100.0%
Sterile water, pH 5.5 buffer, 8 hours
  Doxorubicin.HCl % stability: 88.3%
Sterile water, pH 5.5 buffer, 16 hours
  Doxorubicin.HCl % stability: 69.7%
Sterile water, pH 5.5 buffer, 24 hours
  Doxorubicin.HCl % stability: 60.0%
Sterile water, pH 5.5 buffer, 48 hours
  Doxorubicin.HCl % stability: 44.1%
